Assay results taken from patent US9783556B2, “Kinase inhibitors” (RESPIVERT LIMITED, priority 2012, dated 2017).

Columns and labels:
[1] = test system: TNBS-induced colitis in mice; experiment: TNBS-induced colitis in mice; assay type: in vivo
Method: On Day 0 of the study TNBS (200 μL) is administered intra-colonically via a plastic catheter followed by BID dosing of the vehicle, reference or test compound for 2 or 4 days. During the study animals are weighed every day and stool observations are made and recorded as a score, based on stool consistency. At the time of sacrifice on Day 2 (or Day 4) the large intestine is removed and the length and weight recorded. Sections of the colon are taken for either MPO analysis to determine neutrophil infiltration or for histopathology involving scoring to determine disease severity.

[2] = molecular target: p38 MAPKα isoform (MAPK14) (Homo sapiens (Human), UniProt Q16539); experiment: p38 MAPKα enzyme inhibition (Z-LYTE FRET); assay type: biochemical
p38 MAPKα isoform (MAPK14), sequence (Q16539 whole entry, canonical isoform): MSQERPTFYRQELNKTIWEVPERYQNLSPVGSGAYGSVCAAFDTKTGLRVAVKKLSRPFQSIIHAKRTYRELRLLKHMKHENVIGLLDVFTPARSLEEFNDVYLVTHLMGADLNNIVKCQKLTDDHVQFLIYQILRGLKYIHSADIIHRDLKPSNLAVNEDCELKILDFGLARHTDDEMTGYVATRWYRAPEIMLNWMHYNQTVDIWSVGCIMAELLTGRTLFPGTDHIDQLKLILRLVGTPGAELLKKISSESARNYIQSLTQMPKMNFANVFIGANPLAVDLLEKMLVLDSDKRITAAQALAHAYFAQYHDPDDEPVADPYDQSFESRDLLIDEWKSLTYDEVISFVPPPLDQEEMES
Method: (§1) The enzyme inhibitory activities of compounds disclosed herein are determined by FRET using synthetic peptides labelled with both donor and acceptor fluorophores (Z-LYTE, Invitrogen Ltd., Paisley, UK).
The following two assay variants can be used for determination of p38 MAPKα inhibition.
The inhibitory activities of test compounds against the p38 MAPKα isoform (MAPK14: Invitrogen), are evaluated indirectly by determining the level of activation/phosphorylation of the down-stream molecule, MAPKAP-K2. The p38 MAPKα protein (80 ng/mL, 2.5 μL) is mixed with the test compound (2.5 μL of either 4 μg/mL, 0.4 μg/mL, 0.04 μg/mL or 0.004 μg/mL) for 2 hr at RT. […] The mixture is incubated for 1 hr at RT. Development reagent (protease, 5 μL) is added for 1 hr prior to detection in a fluorescence microplate reader (Varioskan® Flash, ThermoFisher Scientific).
This method follows the same steps as Method 1 above, but utilises a higher concentration of the p38 MAPKα protein (2.5 μL of 200 ng/mL protein instead of 2.5 μL of 80 ng/mL protein) for mixing with the test compound.
(§2) In all cases, the site-specific protease cleaves non-phosphorylated peptide only and eliminates the FRET signal. Phosphorylation levels of each reaction are calculated using the ratio of coumarin emission (donor) over fluorescein emission (acceptor), for which high ratios indicate high phosphorylation and low ratios indicate low phosphorylation levels. The percentage inhibition of each reaction is calculated relative to non-inhibited control and the 50% inhibitory concentration (IC50 value) is then calculated from the concentration-response curve.

c-Src = c-Src (Homo sapiens (Human), UniProt P12931); experiment: c-Src enzyme inhibition (Z-LYTE FRET); assay type: biochemical
c-Src, sequence (P12931 whole entry, looked up): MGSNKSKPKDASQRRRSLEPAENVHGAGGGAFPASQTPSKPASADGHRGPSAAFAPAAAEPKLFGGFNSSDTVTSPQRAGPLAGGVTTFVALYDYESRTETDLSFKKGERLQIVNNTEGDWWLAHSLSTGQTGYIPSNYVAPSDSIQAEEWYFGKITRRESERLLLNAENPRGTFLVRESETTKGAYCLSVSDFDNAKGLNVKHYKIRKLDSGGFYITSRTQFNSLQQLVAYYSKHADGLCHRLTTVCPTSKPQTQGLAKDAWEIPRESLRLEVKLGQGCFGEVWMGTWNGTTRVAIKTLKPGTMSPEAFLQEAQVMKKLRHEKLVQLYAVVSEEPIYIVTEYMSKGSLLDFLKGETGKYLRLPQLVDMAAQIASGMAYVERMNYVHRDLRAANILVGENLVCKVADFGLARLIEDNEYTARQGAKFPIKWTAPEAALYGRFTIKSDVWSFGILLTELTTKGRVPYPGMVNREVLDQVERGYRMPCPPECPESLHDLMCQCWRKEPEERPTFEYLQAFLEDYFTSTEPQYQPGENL
Method: as §1
(§3) The inhibitory activities of compounds of the invention against c-Src and Syk enzymes (Invitrogen), are evaluated in a similar fashion to that described hereinabove. The relevant enzyme (3000 ng/mL or 2000 ng/mL respectively, 2.5 μL) is incubated with the test compound (either 4 μg/mL, 0.4 μg/mL, 0.04 μg/mL, or 0.004 μg/mL, 2.5 μL each) for 2 hr at RT. The FRET peptides (8 μM, 2.5 μL), and appropriate ATP solutions (2.5 μL, 800 μM for c-Src, and 60 μM ATP for Syk) are then added to the enzymes/compound mixtures and incubated for 1 hr. Development reagent (protease, 5 μL) is added for 1 hr prior to detection in a fluorescence microplate reader (Varioskan® Flash, ThermoFisher Scientific).
as §2

Syk = Syk (Homo sapiens (Human), UniProt P43405); experiment: Syk enzyme inhibition (Z-LYTE FRET); assay type: biochemical
Method: as §1, §3, §2

GSK 3α = GSK 3α (Homo sapiens (Human), UniProt P49840); experiment: GSK 3α enzyme inhibition (Z-LYTE FRET); assay type: biochemical; conditions: read-out: IC50 Values for Enzyme Inhibition GSK3α
GSK 3α, sequence (P49840 whole entry): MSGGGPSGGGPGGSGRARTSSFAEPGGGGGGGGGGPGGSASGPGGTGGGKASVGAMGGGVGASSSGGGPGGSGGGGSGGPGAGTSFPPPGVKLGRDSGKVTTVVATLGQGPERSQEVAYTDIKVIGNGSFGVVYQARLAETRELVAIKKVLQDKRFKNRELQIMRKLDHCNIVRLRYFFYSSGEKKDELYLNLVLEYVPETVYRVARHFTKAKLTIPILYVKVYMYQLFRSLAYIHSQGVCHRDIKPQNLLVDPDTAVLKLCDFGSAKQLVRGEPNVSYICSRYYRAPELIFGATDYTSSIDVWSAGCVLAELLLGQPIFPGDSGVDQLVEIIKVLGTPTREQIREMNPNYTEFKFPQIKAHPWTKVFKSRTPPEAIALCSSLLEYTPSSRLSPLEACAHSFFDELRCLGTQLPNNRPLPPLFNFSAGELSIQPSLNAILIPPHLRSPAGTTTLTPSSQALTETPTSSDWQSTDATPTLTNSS
Method: as §1
The following two assay variants can be used for determination of GSK 3α inhibition.
The inhibitory activities of compounds of the invention against the GSK 3α enzyme isoform (Invitrogen), are evaluated by determining the level of activation/phosphorylation of the target peptide. The GSK3-α protein (500 ng/mL, 2.5 μL) is mixed with the test compound (2.5 μL at either 4 μg/mL, 0.4 μg/mL, 0.04 μg/mL, or 0.004 μg/mL) for 2 hr at RT. The FRET peptide (8 μM, 2.5 μL), which is a phosphorylation target for GSK3α, and ATP (40 μM, 2.5 μL) are then added to the enzyme/compound mixture and the resulting mixture incubated for 1 hr. Development reagent (protease, 5 μL) is added for 1 hr prior to detection in a fluorescence microplate reader (Varioskan® Flash, ThermoFisher Scientific).
as §2
This method follows the same steps as Method 1 above, but utilises a shorter period of mixing of the test compound (105 minutes instead of 2 hours) with the GSK3-α protein.

PBMCs [3] = experiment: LPS-induced TNFα/IL-8 release in PBMC cells; assay type: cell-based; conditions: Homo sapiens, LPS-stimulated PBMCs, IL-8, read-out: IC50 Values for Inhibition of Cytokine Release PBMCs IL-8
Method: Peripheral blood mononuclear cells (PBMCs) from healthy subjects are separated from whole blood using a density gradient (Lymphoprep, Axis-Shield Healthcare). The PBMCs are seeded in 96 well plates and treated with compounds at the desired concentration for 2 hours before addition of 1 ng/mL LPS (Escherichia Coli 0111:B4 from Sigma Aldrich) for 24 hours under normal tissue culture conditions (37° C., 5% CO2). The supernatant is harvested for determination of IL-8 and TNFα concentrations by sandwich ELISA (Duo-set, R&D systems) and read on the fluorescence microplate reader (Varioskan® Flash, ThermoFisher Scientific). The concentration at 50% inhibition (IC50) of IL-8 and TNFα production is calculated from the dose response curve.

PBMCs [4] = experiment: IL-2 and IFN gamma release in CD3/CD28 stimulated PBMC cells; assay type: cell-based; conditions: Homo sapiens
Method: PBMCs from healthy subjects are separated from whole blood using a density gradient (Lymphoprep, Axis-Shield Healthcare). Cells are added to a 96 well plate pre-coated with a mixture of CD3/CD38 monoclonal antibodies (0.3 μg/mL eBioscience and 3 μg/mL BD Pharmingen respectively). Compound at the desired concentration is then added to the wells and the plate left for 3 days under normal tissue culture conditions. Supernatants are harvested and IL-2 and IFN gamma release determined by Sandwich ELISA (Duo-set, R&D System). The IC50 is determined from the dose response curve.

HT29 cells = experiment: IL-1β-induced IL-8 release in HT29 cells; assay type: cell-based; conditions: Homo sapiens, HT-29, IL-1β-stimulated HT29 cells, read-out: IC50 Values for Inhibition of Cytokine Release HT29 cells IL-8
Method: HT29 cells, a human colon adenocarcinoma cell line, are plated in a 96 well plate (24 hrs) and pre-treated with compounds at the desired concentration for 2 hours before addition of 5 ng/mL of IL-1β (Abcam) for 24 hours. Supernatants are harvested for IL-8 quantification by Sandwich ELISA (Duo-set, R&D System). The IC50 is determined from the dose response curve.

[5] = TNBS mice, conducted over 2 days

Row | SMILES | Ulcer grade ([1]; TNBS mice, reference item, dose not given, vehicle 3.7 ± 0.3) | LP inflammation ([1]; TNBS mice, reference item, dose not given, vehicle 4.1 ± 0.2) | IC50 [2] | IC50 (c-Src) | IC50 (Syk) | IC50 (GSK 3α) | IC50 (PBMCs [3]) | IC50 (PBMCs [4]; IFNγ, read-out: IC50 Values for Inhibition of Cytokine Release PBMCs IFNγ) | IC50 (PBMCs [4]; IL-2, read-out: IC50 Values for Inhibition of Cytokine Release PBMCs IL-2) | IC50 (HT29 cells) | Ulcer grade ([1]; TNBS mice, 1 mg/kg oral BID, 2 days, vehicle 3.7 ± 0.3, non-diseased 0 ± 0) | LP inflammation ([1]; TNBS mice, 1 mg/kg oral BID, 2 days, vehicle 4.1 ± 0.2, non-diseased 0.3 ± 0.2) | Ulcer grade ([1]; TNBS mice, 5 mg/kg oral BID, 2 days, vehicle 3.7 ± 0.3, non-diseased 0 ± 0) | LP inflammation ([1]; TNBS mice, 5 mg/kg oral BID, 2 days, vehicle 4.1 ± 0.2, non-diseased 0.3 ± 0.2) | activity in in vivo model of colonic inflammation (histopathology analysis) [1, 5] | inflammatory cell infiltrate in the reticular and laminar propria zone [1, 5] | ulcer grade and epithelial repair compared to the vehicle control ([1]; dosed orally at 5 mg/kg)
1 | Nc1ccc(O)c(C(=O)O)c1 [Example 5-ASA, 5-aminosalicylic acid, reference compound] | 3.0 ± 0.5 | 2.3 ± 0.3 |  |  |  |  |  |  |  |  |  |  |  |  |  |  | 
2 | COCCOCCOCCOc1cc(Nc2nccc(Oc3ccc(NC(=O)Nc4cc([Si](C)(C)C)nn4-c4ccc(C)cc4)c4ccccc34)n2)cc(OC)c1 [Example 21, 1-(4-((2-((3-Methoxy-5-(2-(2-(2-methoxyethoxyl)ethoxy)ethoxy)phenyl)amino)pyrimidin-4-yl)oxy)naphthalen-1-yl)-3-(1-(p-tolyl)-3-(trimethylsilyl)-1H-pyrazol-5-yl)urea] |  |  | 204 nM | 17 nM | 89 nM | 11600 nM | 2 nM | 2 nM | 137 nM | 2 nM | 3.3 ± 0.5 | 3.8 ± 0.3 | 3.2 ± 0.4 | 2.7 ± 0.3 | significant activity | marked reduction | marked improvements
